Laboratory results reported in ChEMBL document CHEMBL1156432, “Structure and regulation of the human Nek2 centrosomal kinase” (J Biol Chem, 2007).

B1: Serine/threonine-protein kinase Nek2 (Homo sapiens), P51955 T175A (protein)
chain: MPSRAEDYEVLYTIGTGSYGRCQKIRRKSDGKILVWKELDYGSMTEAEKQMLVSEVNLLRELKHPNIVRYYDRIIDRTNTTLYIVMEYCEGGDLASVITKGTKERQYLDEEFVLRVMTQLTLALKECHRRSDGGHTVLHRDLKPANVFLDGKQNVKLGDFGLARILNHDTSFAKAFVGTPYYMSPEQMNRMSYNEKSDIWSLGCLLYELCALMPPFTAFSQKELAGKIREGKFRRIPYRYSDELNEIITRMLNLKDYHRPSVEEILENPLIADLVADEQRRNLERRGRQLGEPEKSQDSSPVLSELKLKEIQLQERERALKAREERLEQKEQELCVRERLAEDKLARAENLLKNYSLLKERKFLSLASNPELLNLPSSVIKKKVHFSGESKENIMRSENSESQLTSKSKCKDLKKRLHAAQLRAQALSDIEKNYQLKSRQILGMR

Tests used:
[1] = biological target: Serine/threonine-protein kinase Nek2 (Homo sapiens, UniProt P51955, T175A); experiment: Inhibition of human recombinant Nek2 T175A mutant by coupled pyruvate kinase/lactate dehydrogenase assay
[2] = biological target: Platelet-derived growth factor receptor beta (Homo sapiens, UniProt P09619); experiment: Inhibition of PDGFRbeta
Sequence of Platelet-derived growth factor receptor beta (P09619 whole entry): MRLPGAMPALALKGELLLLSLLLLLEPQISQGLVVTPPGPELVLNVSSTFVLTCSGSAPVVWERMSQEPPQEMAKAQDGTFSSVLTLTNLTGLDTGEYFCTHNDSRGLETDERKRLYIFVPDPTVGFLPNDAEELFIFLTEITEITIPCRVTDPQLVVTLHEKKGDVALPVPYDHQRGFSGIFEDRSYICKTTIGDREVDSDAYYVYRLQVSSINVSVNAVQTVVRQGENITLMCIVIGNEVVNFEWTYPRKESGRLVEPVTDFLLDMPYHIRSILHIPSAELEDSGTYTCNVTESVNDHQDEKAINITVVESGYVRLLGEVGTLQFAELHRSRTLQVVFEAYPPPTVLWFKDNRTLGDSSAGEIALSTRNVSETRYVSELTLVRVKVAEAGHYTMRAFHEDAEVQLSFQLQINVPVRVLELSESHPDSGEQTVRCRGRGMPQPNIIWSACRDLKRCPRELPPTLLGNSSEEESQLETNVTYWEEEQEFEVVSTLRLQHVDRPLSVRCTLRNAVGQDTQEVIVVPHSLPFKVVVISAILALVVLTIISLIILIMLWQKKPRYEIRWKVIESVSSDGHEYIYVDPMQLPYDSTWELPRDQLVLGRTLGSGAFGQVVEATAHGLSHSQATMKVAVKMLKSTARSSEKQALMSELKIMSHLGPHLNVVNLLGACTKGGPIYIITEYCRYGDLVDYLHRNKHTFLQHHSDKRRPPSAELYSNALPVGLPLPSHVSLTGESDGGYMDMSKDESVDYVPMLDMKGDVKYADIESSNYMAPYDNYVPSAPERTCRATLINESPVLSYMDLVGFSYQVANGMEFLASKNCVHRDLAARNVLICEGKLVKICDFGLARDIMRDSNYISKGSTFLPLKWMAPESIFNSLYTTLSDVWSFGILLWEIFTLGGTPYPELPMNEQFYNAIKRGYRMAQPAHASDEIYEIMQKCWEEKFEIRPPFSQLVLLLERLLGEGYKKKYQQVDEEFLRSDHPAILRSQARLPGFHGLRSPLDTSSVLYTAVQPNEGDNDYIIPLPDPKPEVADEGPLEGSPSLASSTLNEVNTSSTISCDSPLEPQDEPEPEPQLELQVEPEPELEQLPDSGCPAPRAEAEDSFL

[3] = biological target: Vascular endothelial growth factor receptor 2 (Homo sapiens, UniProt P35968); experiment: Inhibition of VEGFR2
Sequence of Vascular endothelial growth factor receptor 2 (P35968 whole entry): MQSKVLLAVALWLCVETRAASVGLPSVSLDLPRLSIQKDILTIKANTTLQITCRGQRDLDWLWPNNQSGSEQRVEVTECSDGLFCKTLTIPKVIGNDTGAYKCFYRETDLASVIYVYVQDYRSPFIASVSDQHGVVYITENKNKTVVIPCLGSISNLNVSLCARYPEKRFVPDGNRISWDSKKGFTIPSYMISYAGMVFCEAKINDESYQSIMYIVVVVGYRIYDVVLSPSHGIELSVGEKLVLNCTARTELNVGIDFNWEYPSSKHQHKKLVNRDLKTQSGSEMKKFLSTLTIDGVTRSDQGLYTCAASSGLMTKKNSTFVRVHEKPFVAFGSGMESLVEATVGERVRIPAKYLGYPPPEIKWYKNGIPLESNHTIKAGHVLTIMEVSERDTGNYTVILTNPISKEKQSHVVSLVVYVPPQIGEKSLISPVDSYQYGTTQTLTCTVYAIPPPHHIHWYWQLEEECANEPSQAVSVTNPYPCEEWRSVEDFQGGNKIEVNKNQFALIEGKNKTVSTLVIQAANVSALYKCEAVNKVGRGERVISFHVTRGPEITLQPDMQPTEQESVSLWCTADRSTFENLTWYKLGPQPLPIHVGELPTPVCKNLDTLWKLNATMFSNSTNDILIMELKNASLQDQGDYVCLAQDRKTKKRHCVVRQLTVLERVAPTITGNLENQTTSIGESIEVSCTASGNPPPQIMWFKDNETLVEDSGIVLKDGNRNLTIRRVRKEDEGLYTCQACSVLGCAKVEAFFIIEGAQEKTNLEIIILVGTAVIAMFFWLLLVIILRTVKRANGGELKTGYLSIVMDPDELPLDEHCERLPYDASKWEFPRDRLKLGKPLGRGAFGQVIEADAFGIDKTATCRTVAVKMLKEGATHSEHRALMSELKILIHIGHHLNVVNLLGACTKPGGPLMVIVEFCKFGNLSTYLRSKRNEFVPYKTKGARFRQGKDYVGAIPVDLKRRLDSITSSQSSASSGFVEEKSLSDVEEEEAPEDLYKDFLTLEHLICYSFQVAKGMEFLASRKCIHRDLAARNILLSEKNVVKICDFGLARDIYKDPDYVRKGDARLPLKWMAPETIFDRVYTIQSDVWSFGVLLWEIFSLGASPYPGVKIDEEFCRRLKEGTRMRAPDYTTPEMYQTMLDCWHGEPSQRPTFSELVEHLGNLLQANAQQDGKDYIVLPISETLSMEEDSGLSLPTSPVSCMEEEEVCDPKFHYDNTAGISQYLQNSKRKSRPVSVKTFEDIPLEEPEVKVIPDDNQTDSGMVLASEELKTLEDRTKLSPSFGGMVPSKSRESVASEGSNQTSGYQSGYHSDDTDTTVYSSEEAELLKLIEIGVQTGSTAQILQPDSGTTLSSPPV

[4] = biological target: Epidermal growth factor receptor (Homo sapiens, UniProt P00533); experiment: Inhibition of EGFR
Sequence of Epidermal growth factor receptor (P00533 whole entry): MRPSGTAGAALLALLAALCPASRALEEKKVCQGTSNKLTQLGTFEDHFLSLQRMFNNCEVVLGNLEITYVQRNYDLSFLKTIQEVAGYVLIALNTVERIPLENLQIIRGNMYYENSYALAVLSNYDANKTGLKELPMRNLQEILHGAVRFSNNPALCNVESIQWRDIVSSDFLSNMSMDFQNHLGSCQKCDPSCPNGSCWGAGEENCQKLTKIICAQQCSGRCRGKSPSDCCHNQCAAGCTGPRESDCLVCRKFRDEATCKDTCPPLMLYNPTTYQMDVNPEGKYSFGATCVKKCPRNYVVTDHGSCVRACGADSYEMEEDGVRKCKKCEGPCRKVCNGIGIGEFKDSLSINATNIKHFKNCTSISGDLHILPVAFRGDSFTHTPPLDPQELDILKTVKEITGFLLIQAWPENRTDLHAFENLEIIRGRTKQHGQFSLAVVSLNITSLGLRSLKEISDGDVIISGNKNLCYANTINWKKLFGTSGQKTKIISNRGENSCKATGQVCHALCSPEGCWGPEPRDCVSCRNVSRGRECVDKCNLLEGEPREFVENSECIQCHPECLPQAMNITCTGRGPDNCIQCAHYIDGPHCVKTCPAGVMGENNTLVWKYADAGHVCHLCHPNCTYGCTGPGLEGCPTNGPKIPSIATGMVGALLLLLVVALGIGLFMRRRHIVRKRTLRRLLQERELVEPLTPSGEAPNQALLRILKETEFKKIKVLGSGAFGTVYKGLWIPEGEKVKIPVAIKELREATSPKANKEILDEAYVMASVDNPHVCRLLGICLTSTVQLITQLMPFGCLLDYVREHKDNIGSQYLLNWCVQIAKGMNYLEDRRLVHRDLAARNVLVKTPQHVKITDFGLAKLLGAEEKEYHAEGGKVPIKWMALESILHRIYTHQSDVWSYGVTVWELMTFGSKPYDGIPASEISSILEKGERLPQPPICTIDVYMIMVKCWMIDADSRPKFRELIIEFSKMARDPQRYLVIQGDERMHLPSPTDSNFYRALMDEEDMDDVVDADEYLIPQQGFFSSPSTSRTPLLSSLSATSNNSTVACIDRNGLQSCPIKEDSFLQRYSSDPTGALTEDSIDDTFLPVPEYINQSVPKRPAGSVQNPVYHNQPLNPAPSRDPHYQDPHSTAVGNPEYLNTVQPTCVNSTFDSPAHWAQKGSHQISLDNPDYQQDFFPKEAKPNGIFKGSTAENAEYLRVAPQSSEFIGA

[5] = substrate: CC[C@H](C)[C@H](NC(=O)[C@H](CO)NC(=O)[C@H](CO)NC(=O)[C@H](CCCNC(=N)N)NC(=O)[C@H](Cc1ccccc1)NC(=O)[C@@H](NC(=O)CN)[C@@H](C)O)C(=O)N[C@@H](CCCNC(=N)N)C(=O)N[C@@H](CCCNC(=N)N)C(=O)N[C@@H](CC(C)C)C(=O)N[C@@H](CO)C(=O)N[C@H](C(=O)N[C@@H](CCCNC(=N)N)C(=O)N[C@@H](CCCNC(=N)N)C(=O)N[C@@H](CCCNC(=N)N)C(=O)N[C@@H](Cc1ccc(O)cc1)C(=O)O)[C@@H](C)O; experiment: Activity of human recombinant Nek2 T175A mutant assessed as substrate phosphorylation

Row | Molecule | IC50 [1] [µM] | IC50 [2] [µM] | IC50 [3] [µM] | IC50 [4] [µM] | Km [5] [µM] | kcat [5] [s⁻¹]
1 | CCN(CC)CCNC(=O)c1c(C)[nH]c(/C=C2\C(=O)Nc3ccc(Cl)cc32)c1C [SU-11652] | 8 | 3 | 3 | 3 |  | 
2 | B1 |  |  |  |  | 90 | 0.283
